Source: patent US4161542A, “Heart active compounds” (priority 1975, dated 1979)

tested on: β-receptors; assay: β-blocking activity in reserpinized anesthetized cat (block of isoprenaline effect on heart rate and peripheral resistance; intrinsic activity); type: in vivo; settings: after final dose giving 100% blockade of isoprenaline response
Experimental: Anesthetized cats (males and females weighing 2.5-3.5 kg) were pretreated with reserpine (5 mg/kg bodyweight administered intramuscularly) about 16 hours before the experiments. The animals were pretreated with reserpine in order to eliminate the endogenous sympathetic control of heart rate and vascular smooth muscle tone. The cats were anesthetized with pentobarbital (30 mg/kg bodyweight administered i.p.) and artificially ventilated with room air. A bilateral vagotomy was performed in the neck. Blood pressure was obtained from a cannulated carotid artery and heart rate was registered from a cardiotachometer, triggered by the electrocardiogram (ECG). One […] artery was cannulated and perfused with the cat's own blood, delivered at a constant flow rate with a Watson Marlow roller pump. The perfusion pressure was recorded with a Statham pressure transducer. The blood flow rate was so adjusted that the initially recorded perfusion pressure was slightly above the systemic arterial mean blood pressure. In the studied hind limb the paw was excluded from the circulation by a tight ligature. An isoprenaline dose administered intravenously was established giving a submaximal heart rate (HR) increase and a submaximal decrease of peripheral vascular resistance (PR). The latter is shown as a drop of perfusion pressure.
To start the test, an initial dose of the test compound is injected into the animal. Ten minutes afterward the predetermined dose of isoprenaline is injected and the effect of the isoprenaline on the heart rate and peripheral resistance is noted. By comparing these observations with the normal response of the test animal to the predetermined dose of isoprenaline, the percent blockade of the HR and PR caused by the initial dose of test compound is calculated. The experiment is repeated with logrithmically increasing doses of the test compound (on a cumulative basis), alternating with the predetermined dose of isoprenaline every 10 minutes.
After the final dose of the test compound is administered--which is sufficient to cause a 100% blockade of the isoprenaline response--the intrinsic activity of the test compound is noted as the increase in heart rate relative to the basal heart rate of the test animal before the experiment began.

Point of comparison: `CC(C)NCC(O)COc1cccc2ccccc12` (centres unmarked) [Propranolol, propranolol, reference compound], “Intrinsic activity (increase in heart rate relative to basal)” value 0 beats/min.. Against it:
- COCCc1ccc(OCC(O)CNC(C)C)cc1 (centres unmarked) [Metoprolol, metoprolol, reference compound] — the same, 0 beats/min.

For `CCc1ccccc1OCC(O)CNC(C)Cc1ccc(O)cc1` (centres unmarked) [Ex. 2, 3-[2-(4-hydroxyphenyl)-1-methylethylamino]-1-o-ethylphenoxy-propanol-2], the “Intrinsic activity (increase in heart rate relative to basal)” value was “+32 beats/min”.
For `COc1ccccc1OCC(O)CNC(C)Cc1ccc(O)cc1` (centres unmarked) [Ex. 10, 3-[2-(4-hydroxyphenyl)-1-methylethylamino]-1-o-methoxyphenoxy-propanol-2], the “Intrinsic activity (increase in heart rate relative to basal)” value was “+40 beats/min”.
`C=CCc1ccccc1OCC(O)CNC(C)(C)Cc1ccc(O)cc1` (centres unmarked) [Ex. 7, 3-[2-(4-hydroxyphenyl)-1,1-dimethylethylamino]-1-o-allylphenoxy-propanol-2] was tested, and the “Intrinsic activity (increase in heart rate relative to basal)” value was “+39 beats/min”.
In the case of `C=CCc1ccccc1OCC(O)C(C)NC(C)(C)Cc1ccc(O)cc1` (centres unmarked) [Ex. 14, 3-methyl-3-[2-(4-hydroxyphenyl)-1,1-dimethylethylamino]-1-o-allylphenoxy-propanol-2], the “Intrinsic activity (increase in heart rate relative to basal)” value is reported as “+3 beats/min”.
For `CCCc1ccccc1OCC(O)CNC(C)Cc1ccc(O)cc1` (centres unmarked) [Ex. 16, 3-[2-(4-hydroxyphenyl)-1-methylethylamino]-1-o-propylphenoxy-propanol-2], the “Intrinsic activity (increase in heart rate relative to basal)” value was “+35 beats/min”.

same assay, conditions: cumulative doses, vs isoprenaline i.v., heart rate

Point of comparison: `COCCc1ccc(OCC(O)CNC(C)C)cc1` (centres unmarked) [Metoprolol, metoprolol, reference compound], “Block of isopren. ED50 HR (heart rate blockade)” value 0.2 mg/kg. Against it:
- C=CCc1ccccc1OCC(O)C(CC)NC(C)Cc1ccc(O)cc1 (centres unmarked) [Ex. 12, 3-ethyl-3-[2-(4-hydroxyphenyl)-1-methylethylamino]-1-o-allylphenoxy-propanol-2] — 25-fold higher, 5.1 mg/kg
- Cc1cccc(OCC(O)CNC(C)Cc2ccc(O)cc2)c1C (centres unmarked) [Ex. 9, 3-[2-(4-hydroxyphenyl)-1-methylethylamino]-1-[2,3-dimethylphenoxy]-propanol-2] — within 1.5-fold, 0.26 mg/kg
- CCc1ccccc1OCC(O)CNC(C)Cc1ccc(O)cc1 (centres unmarked) [Ex. 2, 3-[2-(4-hydroxyphenyl)-1-methylethylamino]-1-o-ethylphenoxy-propanol-2] — 1.8-fold lower, 0.11 mg/kg
- COc1ccccc1OCC(O)CNC(C)Cc1ccc(O)cc1 (centres unmarked) [Ex. 10, 3-[2-(4-hydroxyphenyl)-1-methylethylamino]-1-o-methoxyphenoxy-propanol-2] — 5-fold lower, 0.04 mg/kg
- CC(C)NCC(O)COc1cccc2ccccc12 (centres unmarked) [Propranolol, propranolol, reference compound] — 2-fold lower, 0.1 mg/kg
- C=CCc1ccccc1OCC(O)CNC(C)(C)Cc1ccc(O)cc1 (centres unmarked) [Ex. 7, 3-[2-(4-hydroxyphenyl)-1,1-dimethylethylamino]-1-o-allylphenoxy-propanol-2] — 2.2-fold lower, 0.09 mg/kg
- C=CCc1ccccc1OCC(O)C(C)NC(C)(C)Cc1ccc(O)cc1 (centres unmarked) [Ex. 14, 3-methyl-3-[2-(4-hydroxyphenyl)-1,1-dimethylethylamino]-1-o-allylphenoxy-propanol-2] — 12-fold higher, 2.5 mg/kg
- CCCc1ccccc1OCC(O)CNC(C)Cc1ccc(O)cc1 (centres unmarked) [Ex. 16, 3-[2-(4-hydroxyphenyl)-1-methylethylamino]-1-o-propylphenoxy-propanol-2] — 6.5-fold higher, 1.3 mg/kg

same assay, conditions: cumulative doses, vs isoprenaline i.v., peripheral vascular resistance

Point of comparison: `C=CCc1ccccc1OCC(O)CNC(C)(C)Cc1ccc(O)cc1` (centres unmarked) [Ex. 7, 3-[2-(4-hydroxyphenyl)-1,1-dimethylethylamino]-1-o-allylphenoxy-propanol-2], “Block of isopren. ED50 PR (peripheral resistance blockade)” value 0.06 mg/kg. Against it:
- C=CCc1ccccc1OCC(O)C(CC)NC(C)Cc1ccc(O)cc1 (centres unmarked) [Ex. 12, 3-ethyl-3-[2-(4-hydroxyphenyl)-1-methylethylamino]-1-o-allylphenoxy-propanol-2] — 55-fold higher, 3.3 mg/kg
- Cc1cccc(OCC(O)CNC(C)Cc2ccc(O)cc2)c1C (centres unmarked) [Ex. 9, 3-[2-(4-hydroxyphenyl)-1-methylethylamino]-1-[2,3-dimethylphenoxy]-propanol-2] — 9.8-fold higher, 0.59 mg/kg
- COCCc1ccc(OCC(O)CNC(C)C)cc1 (centres unmarked) [Metoprolol, metoprolol, reference compound] — 78-fold higher, 4.7 mg/kg
- CCc1ccccc1OCC(O)CNC(C)Cc1ccc(O)cc1 (centres unmarked) [Ex. 2, 3-[2-(4-hydroxyphenyl)-1-methylethylamino]-1-o-ethylphenoxy-propanol-2] — 2.5-fold higher, 0.15 mg/kg
- COc1ccccc1OCC(O)CNC(C)Cc1ccc(O)cc1 (centres unmarked) [Ex. 10, 3-[2-(4-hydroxyphenyl)-1-methylethylamino]-1-o-methoxyphenoxy-propanol-2] — 8.3-fold higher, 0.5 mg/kg
- CC(C)NCC(O)COc1cccc2ccccc12 (centres unmarked) [Propranolol, propranolol, reference compound] — 1.7-fold higher, 0.1 mg/kg
- C=CCc1ccccc1OCC(O)C(C)NC(C)(C)Cc1ccc(O)cc1 (centres unmarked) [Ex. 14, 3-methyl-3-[2-(4-hydroxyphenyl)-1,1-dimethylethylamino]-1-o-allylphenoxy-propanol-2] — 10-fold higher, 0.6 mg/kg
- CCCc1ccccc1OCC(O)CNC(C)Cc1ccc(O)cc1 (centres unmarked) [Ex. 16, 3-[2-(4-hydroxyphenyl)-1-methylethylamino]-1-o-propylphenoxy-propanol-2] — 13-fold higher, 0.8 mg/kg

target: T1, α-receptor (Rattus norvegicus, UniProt P43140); assay: α-blocking activity in isolated rat vas deferens (antagonism of noradrenaline contraction); settings: not given
T1 construct: from tissue; host or cells: isolated rat vas deferens
T1 sequence (P43140 1-466): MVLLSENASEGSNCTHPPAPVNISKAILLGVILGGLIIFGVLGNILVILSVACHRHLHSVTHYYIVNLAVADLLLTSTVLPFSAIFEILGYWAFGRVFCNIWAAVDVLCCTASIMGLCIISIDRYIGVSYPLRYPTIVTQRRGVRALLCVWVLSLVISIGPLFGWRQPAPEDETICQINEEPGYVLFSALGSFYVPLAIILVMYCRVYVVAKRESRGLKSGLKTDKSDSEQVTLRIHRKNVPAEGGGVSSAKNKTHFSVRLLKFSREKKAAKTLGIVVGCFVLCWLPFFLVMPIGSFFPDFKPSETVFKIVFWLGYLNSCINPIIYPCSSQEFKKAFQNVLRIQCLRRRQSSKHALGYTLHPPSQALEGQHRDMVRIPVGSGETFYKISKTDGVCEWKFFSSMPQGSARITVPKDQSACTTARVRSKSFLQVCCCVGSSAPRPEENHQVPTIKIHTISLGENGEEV
Experimental: α-blocking activity was tested in isolated rat vas deferens. Rats were decapitated and the vas deferens was immediately dissected out and mounted in an oxygenated Krebs Ringer solution at 37° C. Noradrenaline administered to the bath caused α-receptor mediated contraction of vas deferens, which was recorded with an isometric tension transducer. Dose response curves to noradrenaline were constructed before and after three increasing doses of the test compound. By using Schildt plots pA2 values for α-receptor blockade were obtained. By definition pA2 =-log concentration of an antagonist (in this case, the test compound) which requires that the concentration of the related agonist (in this case noradrenaline) be doubled in the presence of the antagonist in order to produce the same effect as the agonist caused in the absence of the antagonist.

In the case of `CCc1ccccc1OCC(O)CNC(C)Cc1ccc(O)cc1` (centres unmarked) [Ex. 2, 3-[2-(4-hydroxyphenyl)-1-methylethylamino]-1-o-ethylphenoxy-propanol-2], the Kb is reported as 0.0631 µM.

same assay, conditions: isolated rat vas deferens, Krebs Ringer, 37° C., noradrenaline agonist, Schildt plot; read-out: pA2 (α-receptor blockade) (converted)

Point of comparison: `CCCc1ccccc1OCC(O)CNC(C)Cc1ccc(O)cc1` (centres unmarked) [Ex. 16, 3-[2-(4-hydroxyphenyl)-1-methylethylamino]-1-o-propylphenoxy-propanol-2], Kb 0.158 µM. Against it:
- C=CCc1ccccc1OCC(O)C(CC)NC(C)Cc1ccc(O)cc1 (centres unmarked) [Ex. 12, 3-ethyl-3-[2-(4-hydroxyphenyl)-1-methylethylamino]-1-o-allylphenoxy-propanol-2] — 1.6-fold higher, 0.251 µM
- Cc1cccc(OCC(O)CNC(C)Cc2ccc(O)cc2)c1C (centres unmarked) [Ex. 9, 3-[2-(4-hydroxyphenyl)-1-methylethylamino]-1-[2,3-dimethylphenoxy]-propanol-2] — 5-fold higher, 0.794 µM
- COc1ccccc1OCC(O)CNC(C)Cc1ccc(O)cc1 (centres unmarked) [Ex. 10, 3-[2-(4-hydroxyphenyl)-1-methylethylamino]-1-o-methoxyphenoxy-propanol-2] — 2.5-fold higher, 0.398 µM
- C=CCc1ccccc1OCC(O)CNC(C)(C)Cc1ccc(O)cc1 (centres unmarked) [Ex. 7, 3-[2-(4-hydroxyphenyl)-1,1-dimethylethylamino]-1-o-allylphenoxy-propanol-2] — 2.5-fold higher, 0.398 µM
- C=CCc1ccccc1OCC(O)C(C)NC(C)(C)Cc1ccc(O)cc1 (centres unmarked) [Ex. 14, 3-methyl-3-[2-(4-hydroxyphenyl)-1,1-dimethylethylamino]-1-o-allylphenoxy-propanol-2] — 4-fold lower, 0.0398 µM
